The values that follow come from patent US20230312576A1, “4-(7H-PYRROLO[2,3-D]PYRIMIDIN-4-YL)-3,6-DIHYDROPYRIDINE-1-(2H)-CARBOXAMIDE DERIVATIVES AS LIMK AND/OR ROCK KINASES INHIBITORS FOR USE IN THE TREATMENT OF CANCER” (CENTRE NATIONAL DE LA RECHERCHE SCIENTIFIQUE, priority 2020, published 2023).

Assay [1] concerns the target ROCK1 (Homo sapiens (Human), UniProt Q13464). As to the kind of experiment: Z'Lyte assay, ROCK1 inhibition at a single concentration. The format is biochemical.
The target in assay [2] is LIMK2 (Homo sapiens (Human), UniProt P53671). In words: Lanthascreen Eu binding assay (TR-FRET), inhibition of LIMK2. (In general: In TR-FRET formats the signal depends on donor and acceptor labels being close together.)
Assay [3] concerns the target ROCK2 (Homo sapiens (Human), UniProt O75116). As to the kind of experiment: Z'Lyte assay, ROCK2 inhibition at a single concentration. Type of assay: biochemical.
Assay [4] concerns the target LIMK1 (Homo sapiens (Human), UniProt P53667). In words: Lanthascreen Eu binding assay (TR-FRET), inhibition of LIMK1.
Where [5] appears, read: read-out: % inhibition (ROCK1) 1 uM, 1 uM.
[6] abbreviates: read-out: % inhibition (ROCK2) 1 uM, 1 uM.
[7] abbreviates: read-out: % inhibition (ROCK1) 1 uM.
[8] abbreviates: read-out: % inhibition (ROCK2) 1 uM.

Read-outs that look alike come from different tables or passages of the source.

LIMK1, sequence (P53667 whole entry): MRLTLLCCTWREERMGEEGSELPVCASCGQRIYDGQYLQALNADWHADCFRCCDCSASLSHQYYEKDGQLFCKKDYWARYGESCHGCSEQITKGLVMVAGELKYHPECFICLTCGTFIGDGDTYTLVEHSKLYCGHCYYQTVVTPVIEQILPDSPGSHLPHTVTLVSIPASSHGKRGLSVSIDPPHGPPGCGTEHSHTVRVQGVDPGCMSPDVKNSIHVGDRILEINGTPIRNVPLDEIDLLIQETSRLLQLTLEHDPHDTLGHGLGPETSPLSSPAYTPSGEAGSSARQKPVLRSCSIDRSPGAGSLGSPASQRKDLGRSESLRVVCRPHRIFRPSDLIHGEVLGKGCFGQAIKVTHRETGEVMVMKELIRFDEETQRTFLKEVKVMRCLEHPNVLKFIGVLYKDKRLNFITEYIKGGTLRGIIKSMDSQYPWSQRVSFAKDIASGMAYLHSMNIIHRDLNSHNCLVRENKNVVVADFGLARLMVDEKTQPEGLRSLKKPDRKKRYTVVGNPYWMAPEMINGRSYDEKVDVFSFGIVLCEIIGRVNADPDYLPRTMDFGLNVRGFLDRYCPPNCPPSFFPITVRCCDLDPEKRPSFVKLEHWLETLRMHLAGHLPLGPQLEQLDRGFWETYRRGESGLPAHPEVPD
ROCK1, sequence (Q13464 whole entry): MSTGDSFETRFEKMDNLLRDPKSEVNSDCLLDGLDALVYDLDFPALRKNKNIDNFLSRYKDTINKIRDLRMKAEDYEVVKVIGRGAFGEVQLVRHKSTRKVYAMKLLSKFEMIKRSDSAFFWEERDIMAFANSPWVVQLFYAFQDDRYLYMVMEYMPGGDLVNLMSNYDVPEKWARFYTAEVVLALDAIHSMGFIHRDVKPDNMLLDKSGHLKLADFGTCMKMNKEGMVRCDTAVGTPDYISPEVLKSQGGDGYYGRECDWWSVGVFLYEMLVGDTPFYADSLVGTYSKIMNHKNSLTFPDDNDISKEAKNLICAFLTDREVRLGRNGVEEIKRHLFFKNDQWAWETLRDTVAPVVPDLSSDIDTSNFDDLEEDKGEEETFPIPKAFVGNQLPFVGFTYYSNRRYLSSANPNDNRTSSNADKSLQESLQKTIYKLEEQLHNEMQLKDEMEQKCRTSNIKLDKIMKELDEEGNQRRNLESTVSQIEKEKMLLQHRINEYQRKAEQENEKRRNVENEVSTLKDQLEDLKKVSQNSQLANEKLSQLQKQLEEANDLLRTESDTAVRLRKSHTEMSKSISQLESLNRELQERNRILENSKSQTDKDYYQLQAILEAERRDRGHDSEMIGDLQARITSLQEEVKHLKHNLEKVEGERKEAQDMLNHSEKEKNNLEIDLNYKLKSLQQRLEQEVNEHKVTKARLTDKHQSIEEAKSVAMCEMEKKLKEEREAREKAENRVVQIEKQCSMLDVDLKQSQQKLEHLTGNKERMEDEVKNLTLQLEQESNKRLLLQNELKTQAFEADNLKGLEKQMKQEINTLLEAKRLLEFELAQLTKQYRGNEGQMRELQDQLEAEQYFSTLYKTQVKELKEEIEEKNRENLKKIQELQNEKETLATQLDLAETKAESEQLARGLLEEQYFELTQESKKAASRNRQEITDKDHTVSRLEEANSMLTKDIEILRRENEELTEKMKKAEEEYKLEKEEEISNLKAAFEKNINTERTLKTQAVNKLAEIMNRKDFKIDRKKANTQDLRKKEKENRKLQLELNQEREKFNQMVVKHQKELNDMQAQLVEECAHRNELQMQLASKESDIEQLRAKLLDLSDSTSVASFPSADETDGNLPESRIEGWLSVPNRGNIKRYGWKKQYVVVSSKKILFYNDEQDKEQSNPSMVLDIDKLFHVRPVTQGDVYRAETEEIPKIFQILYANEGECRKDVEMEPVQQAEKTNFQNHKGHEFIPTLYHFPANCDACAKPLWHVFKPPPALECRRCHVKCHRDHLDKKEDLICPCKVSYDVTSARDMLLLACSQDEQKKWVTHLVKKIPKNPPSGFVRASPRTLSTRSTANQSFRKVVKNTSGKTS
ROCK2, sequence (O75116 whole entry): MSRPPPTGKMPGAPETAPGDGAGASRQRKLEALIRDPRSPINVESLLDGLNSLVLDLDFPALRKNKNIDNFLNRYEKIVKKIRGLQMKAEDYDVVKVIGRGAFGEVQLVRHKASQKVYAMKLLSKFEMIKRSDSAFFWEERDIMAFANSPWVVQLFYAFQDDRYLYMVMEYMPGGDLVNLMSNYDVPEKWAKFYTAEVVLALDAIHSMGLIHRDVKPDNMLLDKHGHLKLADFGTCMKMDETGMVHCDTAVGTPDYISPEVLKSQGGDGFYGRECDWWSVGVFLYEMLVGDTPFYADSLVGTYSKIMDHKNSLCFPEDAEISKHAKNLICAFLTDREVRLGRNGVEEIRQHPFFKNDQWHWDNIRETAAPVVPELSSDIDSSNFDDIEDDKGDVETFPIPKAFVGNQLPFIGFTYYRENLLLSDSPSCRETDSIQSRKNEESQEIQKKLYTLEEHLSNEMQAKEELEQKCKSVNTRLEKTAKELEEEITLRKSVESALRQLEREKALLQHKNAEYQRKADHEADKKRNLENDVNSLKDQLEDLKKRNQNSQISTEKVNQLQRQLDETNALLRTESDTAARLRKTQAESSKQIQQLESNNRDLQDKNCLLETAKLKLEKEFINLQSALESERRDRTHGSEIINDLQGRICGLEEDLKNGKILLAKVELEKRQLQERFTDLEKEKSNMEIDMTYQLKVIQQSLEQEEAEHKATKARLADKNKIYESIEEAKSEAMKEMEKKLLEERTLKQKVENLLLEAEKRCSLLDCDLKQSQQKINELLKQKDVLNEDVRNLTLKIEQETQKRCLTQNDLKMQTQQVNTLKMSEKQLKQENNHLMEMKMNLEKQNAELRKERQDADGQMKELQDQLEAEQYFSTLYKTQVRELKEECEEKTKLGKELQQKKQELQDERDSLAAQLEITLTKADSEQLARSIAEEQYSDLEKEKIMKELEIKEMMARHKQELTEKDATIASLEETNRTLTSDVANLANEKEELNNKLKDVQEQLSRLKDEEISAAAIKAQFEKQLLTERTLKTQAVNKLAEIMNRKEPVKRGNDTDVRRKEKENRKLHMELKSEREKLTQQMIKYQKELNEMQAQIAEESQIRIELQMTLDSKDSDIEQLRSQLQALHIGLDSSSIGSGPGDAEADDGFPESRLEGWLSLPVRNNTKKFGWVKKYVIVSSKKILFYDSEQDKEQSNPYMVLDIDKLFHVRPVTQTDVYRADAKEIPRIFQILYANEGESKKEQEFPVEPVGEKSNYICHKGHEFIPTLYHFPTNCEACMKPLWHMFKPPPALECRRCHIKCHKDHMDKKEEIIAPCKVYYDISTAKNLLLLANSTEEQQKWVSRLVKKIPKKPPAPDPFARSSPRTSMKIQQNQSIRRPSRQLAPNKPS
LIMK2, sequence (P53671 whole entry): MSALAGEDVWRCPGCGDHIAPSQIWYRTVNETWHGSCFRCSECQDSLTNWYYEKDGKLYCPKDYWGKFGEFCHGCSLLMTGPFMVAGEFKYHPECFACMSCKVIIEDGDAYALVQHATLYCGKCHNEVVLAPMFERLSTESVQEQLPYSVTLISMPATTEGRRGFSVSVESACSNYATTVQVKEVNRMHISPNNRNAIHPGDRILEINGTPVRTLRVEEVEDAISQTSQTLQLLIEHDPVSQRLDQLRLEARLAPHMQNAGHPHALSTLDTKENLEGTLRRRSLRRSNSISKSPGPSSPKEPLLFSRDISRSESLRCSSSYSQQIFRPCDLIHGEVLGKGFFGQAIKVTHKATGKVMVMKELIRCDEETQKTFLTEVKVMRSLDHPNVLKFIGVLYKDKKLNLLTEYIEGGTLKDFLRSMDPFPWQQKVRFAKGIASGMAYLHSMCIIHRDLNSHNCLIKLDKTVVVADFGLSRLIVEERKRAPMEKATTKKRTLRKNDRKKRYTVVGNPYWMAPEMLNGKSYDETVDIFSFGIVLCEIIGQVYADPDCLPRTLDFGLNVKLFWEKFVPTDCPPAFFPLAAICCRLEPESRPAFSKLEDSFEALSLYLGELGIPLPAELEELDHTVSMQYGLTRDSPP

Broadly, the inhibition is the change of the read-out against control, counted positive when it falls. Usually Ki stands for a dissociation constant, usually derived from enzyme kinetics or from competition with a known ligand. A higher Ki goes with a looser hold on the target. On to `Cc1c[nH]c2ncnc(C3=CCN(C(=O)Nc4cccc(Oc5cccc(N(C)C)c5)c4)CC3)c12` [Compound 177, N-(3-(3-(dimethylamino)phenoxy)phenyl)-4-(5-methyl-7H-pyrrolo[2,3-d]pyrimidin-4-yl)-3,6-dihydropyridine-1(2H)-carboxamide], for which the values for the inhibition at 1 µM in assay [1] (setting [5]) and in assay [3] (setting [6]) were 49% and 30%, respectively. Further, the figures for the Ki in assay [2] (Lanthascreen Eu binding assay) and in assay [4] (Lanthascreen Eu binding assay) were 150 nM and 33.6 nM, respectively.
On to `CNC(=O)c1cccc(Oc2cccc(NC(=O)N3CC=C(c4ncnc5[nH]cc(C)c45)CC3)c2)c1` [Compound 222, 4-(5-methyl-7H-pyrrolo[2,3-d]pyrimidin-4-yl)-N-(3-(3-(methylcarbamoyl)phenoxy)phenyl)-3,6-dihydropyridine-1(2H)-carboxamide], for which the inhibition at 1 µM in assay [1] (setting [5]) was found to be 66%; in assay [3] (setting [6]) it was 48%. For the same molecule, the Ki worked out at 2.96 nM in assay [2] (Lanthascreen Eu binding assay) and 4.59 nM in assay [4] (Lanthascreen Eu binding assay).
For `CC(=O)NCCCOc1cccc(-c2cccc(NC(=O)N3CC=C(c4ncnc5[nH]cc(C)c45)CC3)c2)c1` [Compound 40, N-(3′-(3-Acetamidopropoxy)-[1,1′-biphenyl]-3-yl)-4-(5-methyl-7H-pyrrolo[2,3-d]pyrimidin-4-yl)-5,6-dihydropyridine-1(2H)-carboxamide], the inhibition at 1 µM in assay [1] (setting [5]) is 33%; in assay [3] (setting [6]), 22%. In addition, the Ki is 13.4 nM in assay [2] (Lanthascreen Eu binding assay) and 10.6 nM in assay [4] (Lanthascreen Eu binding assay).
As to `Cc1c[nH]c2ncnc(C3=CCN(C(=O)Nc4cccc(C(=O)N5CCN(S(C)(=O)=O)CC5)c4)CC3)c12` [Compound 172, 4-(5-methyl-7H-pyrrolo[2,3-d]pyrimidin-4-yl)-N-[3-(4-methylsulfonylpiperazine-1-carbonyl)phenyl]-3,6-dihydro-2H-pyridine-1-carboxamide], the inhibition at 1 µM amounted to 88% in assay [1] (setting [5]) and 78% in assay [3] (setting [6]). Also, the Ki in assay [2] (Lanthascreen Eu binding assay) was 2540 nM; in assay [4] (Lanthascreen Eu binding assay), 1080 nM.
Taken in the same sequence, the figures for `Cc1c[nH]c2ncnc(C3=CCN(C(=O)Nc4cccc(Oc5ccc(F)cc5)c4)CC3)c12` [Compound 202, N-(3-(4-fluorophenoxy)phenyl)-4-(5-methyl-7H-pyrrolo[2,3-d]pyrimidin-4-yl)-3,6-dihydropyridine-1(2H)-carboxamide] were 26%, 15%, 68.7 nM and 70.4 nM.
As for `Cc1c[nH]c2ncnc(C3=CCN(C(=O)NC4CCCc5ccccc54)CC3)c12` (racemic) [Compound 34-rac, 4-(5-methyl-7H-pyrrolo[2,3-d]pyrimidin-4-yl)-N-tetralin-1-yl-3,6-dihydro-2H-pyridine-1-carboxamide], the values for the inhibition at 1 µM in assay [1] (setting [7]) and in assay [3] (setting [8]) were 79% and 52%, respectively. For the same molecule, the values for the Ki in assay [2] (Lanthascreen Eu binding assay) and in assay [4] (Lanthascreen Eu binding assay) were 742 nM and 610 nM, respectively.
In the case of `Cc1c[nH]c2ncnc(C3=CCN(C(=O)Nc4cccc(OCC5CCN(C)CC5)c4)CC3)c12` [Compound 195, 4-(5-methyl-7H-pyrrolo[2,3-d]pyrimidin-4-yl)-N-(3-((1-methylpiperidin-4-yl)methoxy)phenyl)-3,6-dihydropyridine-1(2H)-carboxamide], the inhibition at 1 µM in assay [1] (setting [5]) was 99%; in assay [3] (setting [6]) it was 93%. Moreover, the Ki in assay [2] (Lanthascreen Eu binding assay) was found to be 189 nM; in assay [4] (Lanthascreen Eu binding assay), 174 nM.
Regarding `Cc1c[nH]c2ncnc(C3=CCN(C(=O)N[C@@H]4CCCc5ccccc54)CC3)c12` [Compound 35-R, 4-(5-methyl-7H-pyrrolo[2,3-d]pyrimidin-4-yl)-N-tetralin-1-yl-3,6-dihydro-2H-pyridine-1-carboxamide], the figures for the inhibition at 1 µM in assay [1] (setting [7]) and in assay [3] (setting [8]) were 24% and 12%, respectively. Further, the Ki in assay [2] turned out to be 2540 nM; in assay [4] it was 851 nM.
Turning to `CC(=O)Nc1cccc(Oc2cccc(NC(=O)N3CC=C(c4ncnc5[nH]cc(C)c45)CC3)c2)c1` [Compound 219, N-(3-(3-acetamidophenoxy)phenyl)-4-(5-methyl-7H-pyrrolo[2,3-d]pyrimidin-4-yl)-3,6-dihydropyridine-1(2H)-carboxamide], the results for the inhibition at 1 µM in assay [1] (setting [5]) and in assay [3] (setting [6]) were 60% and 37%, respectively. Moreover, the Ki in assay [2] (Lanthascreen Eu binding assay) stood at 5.46 nM; in assay [4] (Lanthascreen Eu binding assay) it was 4.93 nM.
